{"source": "patent US20090124691A1", "about": "“INHIBITOR OF INCREASE IN POSTPRANDIAL BLOOD INSULIN LEVEL” (Kao Corporation, priority 2006, published 2009)", "system": "blood insulin level", "test": "Effect of monoacylglycerol in inhibiting postprandial increase in blood insulin level in mouse (oral emulsion, ELISA, AUC)", "format": "in vivo, Male C57BL/6J mice", "settings": "mice, TAG compared with only glucose, MAG in an amount of 1/10 or 1/5 of that of TAG compared with TAG/MAG0 group", "procedure": "Triolein was employed as a triacylglycerol, and 1-monoolein was employed as a monoacylglycerol.\nMale C57BL/6J mice (eight weeks old) were divided into groups (eight mice each). Through a probe, mice of the respective groups were orally administered the following substance: only glucose (2 mg/g-body weight) (Glucose); glucose (2 mg/g-body weight) plus triolein (TAG) (2 mg/g-body weight) emulsified with egg yolk lecithin (0.02 mg/g-body weight) (TAG/MAGO); TAG/MAGO supplemented with 1-monoolein (MAG) of 0.08, 0.2 and 0.4 mg/g-body weight, respectively (TAG/MAG1, TAG/MAG2 and TAG/MAG3). […] Blood was collected from the orbital vein of each mouse over time until 30 minutes after oral administration, and blood insulin level was measured, followed by calculation of the area under the curve (AUC) of a graph. Blood insulin level was measured through ELISA (insulin assay kit, product of Morinaga Institute of Biological Science, Inc.).", "data": [{"compound": "CCCCCCCC/C=C\\CCCCCCCC(=O)OCC(O)CO", "note": "(stereo not shown) [MAG, 1-monoolein]", "values": [{"measurement": "postprandial blood insulin level (amount of postprandial insulin secretion), result in words", "value": "decreased postprandial blood insulin level"}]}]}
